Experimental data published in patent US20050048563A1, “Membrane molecule indicator compositions and methods” (Novasite Pharmaceuticals, Inc, priority 2000, published 2005).

What was measured:
[1] = test system: PLC; type: cell-based, mouse
[2] = test system: adrenal glomerulosa cells; test: Confocal PLCδ1PH-GFP translocation in adrenal glomerulosa cells; type: cell-based, bovine; details: angiotensin II stimulation, 2 mM Sr^2+ or Ca^2+

CCCCCCCC/C=C\CCCCCCCC(=O)OCC(O)COP(=O)(O)O (centres unmarked) [LPA, 1-oleoyl LPA]
translocation amplitude relative to BK response control / BK-induced peak values [1]: 25%

aluminum fluoride [A1F^4−]
desensitization of PLC activation [1]: no desensitization
onset of PLC activation [1]: slow

neurokinin A [NKA]
desensitization of PLC activation on repeated NKA pulses [1]: incremental partial homologous desensitization
translocation of the probe (PLC activation profile) [1]: fast and near-complete translocation

angiotensin II (DRVYIHPF; Angiotensin-2; UniProt P01019 25-32, looked up)
translocation of PLCδ1PH-GFP in presence of Sr^2+ versus Ca^2+ [2]: not significantly different

NCCc1c[nH]cn1 [histamine]
duration of translocation response [1]: ≥ 15 min
translocation amplitude relative to BK response control / BK-induced peak values [1]: 40%
